For this experiment, the target named is T1, Human RET kinase cytoplasmic domain (Homo sapiens, UniProt P07949).
T1 construct: made in house
T1 sequence (P07949 658-1114): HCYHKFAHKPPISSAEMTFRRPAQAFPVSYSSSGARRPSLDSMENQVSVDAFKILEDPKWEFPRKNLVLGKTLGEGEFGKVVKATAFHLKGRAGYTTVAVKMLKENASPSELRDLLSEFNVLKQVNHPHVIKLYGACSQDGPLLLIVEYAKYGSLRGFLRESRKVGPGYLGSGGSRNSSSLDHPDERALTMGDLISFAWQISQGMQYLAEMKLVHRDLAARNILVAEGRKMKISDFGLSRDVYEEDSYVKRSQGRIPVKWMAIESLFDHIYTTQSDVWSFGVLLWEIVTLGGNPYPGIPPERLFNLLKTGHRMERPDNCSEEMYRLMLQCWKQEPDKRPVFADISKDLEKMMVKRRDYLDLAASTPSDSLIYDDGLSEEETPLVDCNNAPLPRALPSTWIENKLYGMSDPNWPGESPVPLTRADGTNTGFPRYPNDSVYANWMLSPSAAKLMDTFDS
Description: RET kinase enzymatic assay. It is filed as biochemical. As for the experimental part:
GST-RET was purified using glutathione sepharose chromatography. The RET kinase enzymatic assay was performed in a total volume of 10 uL with increasing concentrations of RET kinase inhibitor as a singlet in a 384 well format as follows: RET inhibitor compound plates are prepared by adding 100 nL of RET inhibitor at different concentrations to a 384-well plate. 5 μL/well of a 2× enzyme mix (50 mM HEPES (4-(2-hydroxyethyl)-1-piperazineethanesulfonic acid); 1 mM CHAPS (3-[(3-cholamidopropyl)dimethylammonio]-1-propanesulfonate); 0.1 mg/mL BSA (bovine serum albumin); 1 mM DTT (dithiothreitol); 0.2 nM RET kinase) was added to the 384-well plate and incubated for 30 minutes at 23° C. 5 µL/well of a 2× substrate mix (50 mM HEPES; 1 mM CHAPS; 0.1 mg/mL BSA; 20 μM adenosine triphosphate; 20 mM MgCl2 and 1 μM biotinylated peptide substrate) was added and incubated for 1 hour at 23° C. […] IC50s were fitted using GraphPad Prism to a sigmoidal dose response.

As to `CC1(Oc2ccc(NC(=O)Nc3ccc(-c4c[nH]c(=O)c5occc45)cc3F)cc2C(F)(F)F)COC1` [Example 1, 1-(2-Fluoro-4-(7-oxo-6,7-dihydrofuro[2,3-c]pyridin-4-yl)phenyl)-3-(4-((3-methyloxetan-3-yl)oxy)-3-(trifluoromethyl)phenyl)urea], the IC50 was below 100 nM. For `CCOc1cc(-c2ccc(NC(=O)Nc3cc(-n4cnc(C)c4)cc(C(F)(F)F)c3)c(F)c2)c[nH]c1=O` [Example 2, 1-(4-(5-Ethoxy-6-oxo-1,6-dihydropyridin-3-yl)-2-fluorophenyl)-3-(3-(4-methyl-1H-imidazol-1-yl)-5-(trifluoromethyl)phenyl)urea] the value was below 100 nM; for `CCOc1ccc(NC(=O)Nc2ccc(-c3c[nH]c(=O)c4c3CCC4)cc2F)cc1C(F)(F)F` [Example 3, 1-(4-Ethoxy-3-(trifluoromethyl)phenyl)-3-(2-fluoro-4-(1-oxo-2,5,6,7-tetrahydro-1H-cyclopenta[c]pyridin-4-yl)phenyl)urea], below 100 nM.

In turn, `CC1(Oc2ccc(NC(=O)Nc3ccc(-c4c[nH]c(=O)c5cn[nH]c45)cc3F)cc2C(F)(F)F)COC1` [Example 4, 1-(2-Fluoro-4-(4-oxo-4,5-dihydro-1H-pyrazolo[4,3-c]pyridin-7-yl)phenyl)-3-(4-((3-methyloxetan-3-yl)oxy)-3-(trifluoromethyl)phenyl)urea] returned an IC50 below 100 nM. For `CCOc1cc(-c2ccc(NC(=O)Nc3ccc(OC(C)C)c(C(F)(F)F)c3)c(C)n2)c[nH]c1=O` [Example 5, 1-(5′-Ethoxy-6-methyl-6′-oxo-1′,6′-dihydro-[2,3′-bipyridin]-5-yl)-3-(4-isopropoxy-3-(trifluoromethyl)phenyl)urea] the value was below 100 nM; for `CCOc1cc(-c2ccc(NC(=O)Nc3ccc(OC(C)C)c(C(F)F)c3)c(C)n2)c[nH]c1=O` [Example 6, 1-(3-(Difluoromethyl)-4-isopropoxyphenyl)-3-(5′-ethoxy-6-methyl-6′-oxo-1′,6′-dihydro-[2,3′-bipyridin]-5-yl)urea], below 100 nM. With `Cc1cc(-c2ccc(NC(=O)Nc3ccc(OC4(C)COC4)c(C(F)(F)F)c3)c(F)c2)c[nH]c1=O` [Example 7, 1-(2-fluoro-4-(5-methyl-6-oxo-1,6-dihydropyridin-3-yl)phenyl)-3-(4-((3-methyloxetan-3-yl)oxy)-3-(trifluoromethyl)phenyl)urea] the figure was below 100 nM; with `CCOc1cc(-c2ccc(NC(=O)Nc3ccc(OC(C)C)c(C(F)(F)F)c3)nc2C)c[nH]c1=O` [Example 8, 1-(5′-Ethoxy-2-methyl-6′-oxo-1′,6′-dihydro-[3,3′-bipyridin]-6-yl)-3-(4-isopropoxy-3-(trifluoromethyl)phenyl)urea], below 100 nM.

`CCOc1cc(-c2cnc(NC(=O)Nc3ccc(CC(C)(C)CO)c(C(F)(F)F)c3)c(C)c2)c[nH]c1=O` [Example 9, 1-(5′-Ethoxy-5-methyl-6′-oxo-1′,6′-dihydro-[3,3′-bipyridin]-6-yl)-3-(4-(3-hydroxy-2,2-dimethylpropyl)-3-(trifluoromethyl)phenyl)urea] returned an IC50 below 100 nM. `CCOc1cc(-c2ncc(NC(=O)Nc3ccc(C(C)O)c(C(F)(F)F)c3)c(C)n2)c[nH]c1=O` (stereo not drawn) [Example 10, 1-(2-(5-Ethoxy-6-oxo-1,6-dihydropyridin-3-yl)-4-methylpyrimidin-5-yl)-3-(4-(1-hydroxyethyl)-3-(trifluoromethyl)phenyl)urea] had an IC50 below 100 nM. For `CCOc1cc(-c2ccc(NC(=O)Nc3cc(C(C)(C)C(F)(F)F)on3)c(F)c2)c[nH]c1=O` [Example 11, 1-(4-(5-Ethoxy-6-oxo-1,6-dihydropyridin-3-yl)-2-fluorophenyl)-3-(5-(1,1,1-trifluoro-2-methylpropan-2-yl)isoxazol-3-yl)urea] the value was below 100 nM. For `CCOc1cc(=O)[nH]cc1-c1ncc(NC(=O)Nc2ccc(CC3(C)COC3)c(C(F)(F)F)c2)c(C)n1` [Example 12, 1-(2-(4-Ethoxy-6-oxo-1,6-dihydropyridin-3-yl)-4-methylpyrimidin-5-yl)-3-(4-((3-methyloxetan-3-yl)methyl)-3-(trifluoromethyl)phenyl)urea] the value was below 100 nM; for `CCOc1cc(-c2ncc(NC(=O)Nc3ccc(CC4(C)COC4)c(C(F)(F)F)c3)c(C)n2)c[nH]c1=O` [Example 13, 1-(2-(5-Ethoxy-6-oxo-1,6-dihydropyridin-3-yl)-4-methylpyrimidin-5-yl)-3-(4-((3-methyloxetan-3-yl)methyl)-3-(trifluoromethyl)phenyl)urea], below 100 nM; for `CCOc1cc(-c2ncc(NC(=O)Nc3ccc(CC(C)(C)C#N)c(C(F)(F)F)c3)c(C)n2)c[nH]c1=O` [Example 14, 1-(4-(2-Cyano-2-methylpropyl)-3-(trifluoromethyl)phenyl)-3-(2-(5-ethoxy-6-oxo-1,6-dihydropyridin-3-yl)-4-methylpyrimidin-5-yl)urea], below 100 nM. With `CCOc1cc(-c2ncc(NC(=O)Nc3cc(C(C)(C)C(F)(F)F)on3)c(C)n2)c[nH]c1=O` [Example 15, 1-(2-(5-Ethoxy-6-oxo-1,6-dihydropyridin-3-yl)-4-methylpyrimidin-5-yl)-3-(5-(1,1,1-trifluoro-2-methylpropan-2-yl)isoxazol-3-yl)urea] the figure was below 100 nM; with `CCOc1cc(-c2cnc(NC(=O)Nc3cc(C(C)(C)C(F)(F)F)on3)c(C)n2)c[nH]c1=O` [Example 16, 1-(5-(5-Ethoxy-6-oxo-1,6-dihydropyridin-3-yl)-3-methylpyrazin-2-yl)-3-(5-(1,1,1-trifluoro-2-methylpropan-2-yl)isoxazol-3-yl)urea], below 100 nM; with `O=C(Nc1ccc(-c2ccc(=O)[nH]c2)cc1)Nc1ccc(CN2CCNCC2)c(C(F)(F)F)c1` [Example 17, 1-(4-(6-Oxo-1,6-dihydropyridin-3-yl)phenyl)-3-(4-(piperazin-1-ylmethyl)-3-(trifluoromethyl)phenyl)urea], below 100 nM. Consider `CCOc1cc(=O)[nH]cc1-c1ccc(NC(=O)Nc2ccc(OC3(C)COC3)c(C(F)(F)F)c2)c(F)c1` [Example 18, 1-(4-(4-Ethoxy-6-oxo-1,6-dihydropyridin-3-yl)-2-fluorophenyl)-3-(4-((3-methyloxetan-3-yl)oxy)-3-(trifluoromethyl)phenyl)urea], for which the IC50 was below 100 nM.

Take `CC1(Oc2ccc(NC(=O)Nc3ccc(-c4c[nH]c(=O)c5ccoc45)cc3F)cc2C(F)(F)F)COC1` [Example 19, 1-(2-Fluoro-4-(4-oxo-4,5-dihydrofuro[3,2-c]pyridin-7-yl)phenyl)-3-(4-((3-methyloxetan-3-yl)oxy)-3-(trifluoromethyl)phenyl)urea]: the IC50 was below 100 nM. For `CC1(Oc2ccc(NC(=O)Nc3ccc(-c4c[nH]c(=O)c(OC5CC5)c4)cc3F)cc2C(F)(F)F)COC1` [Example 20, 1-(4-(5-Cyclopropoxy-6-oxo-1,6-dihydropyridin-3-yl)-2-fluorophenyl)-3-(4-((3-methyloxetan-3-yl)oxy)-3-(trifluoromethyl)phenyl)urea] the value was below 100 nM. With `COc1cc(-c2ccc(NC(=O)Nc3ccc(OC4(C)COC4)c(C(F)(F)F)c3)cc2)c[nH]c1=O` [Example 21, 1-(4-(5-Methoxy-6-oxo-1,6-dihydropyridin-3-yl)phenyl)-3-(4-((3-methyloxetan-3-yl)oxy)-3-(trifluoromethyl)phenyl)urea] the figure was below 100 nM.

The values are drawn from patent publication US10294236B2, “Compounds as rearranged during transfection (RET) inhibitors” (GLAXOSMITHKLINE INTELLECTUAL PROPERTY DEVELOPMENT LIMITED, priority 2014, dated 2019).
